# Reference: article PMC13289212, “HIVIL: A human in vitro inflammatory liver model recapitulates immune-associated drug effects with high predictivity” (NAM journal, 2025)
# Like-named read-outs stand apart in the source and are kept apart here.
# Legend:
# [1] = binary classification by human hepatotoxicity; ref Thakkar et al. 2020; cited from earlier work
# [2] = system: HIVIL (iKCs co-cultured with iHeps); test: AlamarBlue cell viability in HIVIL
# Experimental: (§1) Stock solutions of drugs were prepared in dimethyl sulfoxide (DMSO) and dissolved in medium prior to use. […] For these two drugs, the highest DMSO concentration was 1 %. Supernatant was collected at 48 hr for measurement of cytokines, and remaining cells were subjected to viability assay prior to lysis for RNA extraction.
# IL-6 [3] = test: IL-6 ELISA in HIVIL (iKCs co-cultured with iHeps, LPS, 48 hr); assay type: cell-based, human; settings: HIVIL; for IL-6 response: result in words
# From the text: (§2) Human iPSC cell line iPS (IMR90)-4 was purchased from WiCell Research Institute (Madison, WI), and maintained with a feeder-free method according to the instruction from […] Technologies (Vancouver, BC, Canada). The protocol of differentiation towards iKCs and iHeps as described previously with slight modification ([Tasnim et al., 2019]; [Cai et al., 2012]), respectively. […] More details are provided in Supplementary Methods. After differentiation, iKCs was harvested using 0.05 % trypsin-EDTA (Gibco, Waltham, Massachusetts, USA), while iHeps were dissociated with TrypLE^TM (Gibco). iHep suspension was further filtered through a 40 µm cell strainer to remove extracellular matrix clumps. Cell suspension was centrifuged at 1000 rpm for 5 min. For co-culture set up, tissue culture plates were coated with Rat tail collagen I (Gibco) diluted 100-fold in 0.02 N acetic acid, and incubated at 37 °C for 1 h and washed 3 times with PBS. According to the protocol optimized by [Tasnim et al. (2019)], iKCs was firstly seeded at a density of 14,000 per well on 96-well plate with Advanced DMEM (plus supplements) containing 5 % FBS. On the following day, iHeps were added at a density of 35,000 per well in Williams’ Medium E (plus supplements) (iHep: iKCs ratio = 2.5: 1). This reflects the physiological ratio of these cells in vivo under inflammatory conditions ([Tasnim et al., 2021]). Fresh media containing drugs was applied to co-cultures the next day. 50,000 cells were seeded to establish iHeps monoculture. THP-1 cells were kindly obtained from Dr. Eliza Fong and cultured as described by [Zeng et al. (2015)]. Details provided in Supplementary Methods.
# as §1
# (§3) Enzyme-linked immunosorbent assay (ELISA) for measurement of cytokines: Interleukin-6 (IL-6), interleukin-10 (IL-10) and tumor necrosis factor alpha (TNFα) levels in the media were measured using the corresponding human-based ELISA kits (Abcam, Cambridge, United Kingdom) according to manufacturer’s instructions. The cytokine production from dosed cells was normalized with the viability value from the same well. The normalized cytokine level upon drug treatments was further presented as percentage of DMSO+LPS. […] This normalization approach has been used in previous studies (Rose et al. 2016).
# IL-6 [4] = test: IL-6 production of iKC mono-culture; assay type: cell-based, human; settings: result in words
# Experimental: (§4) Enzyme-linked immunosorbent assay (ELISA) for measurement of cytokines: Interleukin-6 (IL-6), interleukin-10 (IL-10) and tumor necrosis factor alpha (TNFα) levels in the media were measured using the corresponding human-based ELISA kits (Abcam, Cambridge, United Kingdom) according to manufacturer’s instructions. The cytokine production from dosed cells was normalized with the viability value from the same well. The normalized cytokine level upon drug treatments was further presented as percentage of DMSO+LPS. Normalization to viability per well ensures that any changes in cytokines are not due to changes in cell numbers upon drug treatment and normalization to DMSO+LPS allows better comparison between different batches of experiments. This normalization approach has been used in previous studies (Rose et al. 2016).
# iKCs mono-culture = test: Cell viability of iKCs mono-culture; set-up: dose or concentration left out as unconfirmed
# Experimental: (§5) Cell viability assays: Cell viability was examined with AlamarBlue^TM cell viability assay (Thermo Fisher Scientific Inc.) according to manufacturer’s instructions. Briefly, cells were exposed to AlamarBlue^TM working solution, which was diluted 10-fold using PBS containing 2 mg/mL of glucose, for 1 hour. Color change in the solution was measured using fluorescence (Ex: 530nm, Em: 590nm) in Tecan Microplate Reader M1000 PRO. The viability of dosed cells was presented as percentage of the corresponding vehicle control.
# [5] = FDA-labeling information; ref Chen et al. 2016; cited from earlier work
# TNFα [6] = test: TNFα ELISA in HIVIL (iKCs co-cultured with iHeps, LPS, 48 hr); assay type: cell-based, human
# From the text: as §2, §1, §3
# TNFα [7] = settings: ref Shaw et al. 2010; Zou et al. 2009; Bekker et al. 2012; Gandhi et al. 2013; Heidari et al. 2019; cited from earlier work
# [8] = Cammett et al. 2009, Mendes et al. 2014, cited from earlier work
# IL-6 [9] = test: IL-6 ELISA in iPSC(F4)-derived HIVIL; assay type: cell-based, human; settings: result in words
# Experimental: as §4
# iHeps = test: RNA-Seq of iHeps from mono-culture and HIVIL; assay type: cell-based, human; settings: regardless of culture conditions, result in words
# From the text: Subsequent analyses compared gene fold-changes of treated samples against their respective vehicle controls: "m" and "c" indicate mono- and co-culture, and "–" and "+" represent the absence or presence of LPS. […] However, this is only applicable for co-cultures where downstream effects can be traced back to cytokine changes, and not in monocultures where significant upstream cytokine changes are not observed.
# RNA extraction was done using TRIzol and analyzed on a Tapestation 4200 to determine RNA Integrity Number (RIN). Only samples with RIN > 8 were sequenced. Illumina Stranded mRNA multiplexing was done with unique 96 dual indices, and all samples sequenced on the same lane of NovaSeq 6000 S4 flowcell. Data normalization was performed using DESeq2 v1.32.0 ([Love et al., 2014]) on the R programming language v4.1.0 ([R Core Team, 2021]; [R Team, 2021]). Gene enrichment analysis was done with fgsea v1.18 ([Korotkevich et al., 2021]) with gene sets downloaded from MSigDB and KEGG pathway visualization done via pathview v1.32 ([Kanehisa et al., 2021]; [Luo and Brouwer, 2013]). Other plots were produced using ggplot2 v3.3.5 and scatterplot3d v0.3-41 ([Ligges and Maechler, 2003]). The RNA-Seq dataset has been deposited in NCBI under accession number GSE189320.
# RNA seq and analysis: After 48 hr of drug treatment, iHeps cultured in mono-culture and HIVIL were both subjected to TrypLE^TM dissociation, and subsequently sorted with magnetic separation with the CD163 Microbead kit (Miltenyi Biotec, Bergisch Gladbach, Germany) to obtain only iHeps. Flow-through was collected, pelleted down and snap-frozen in liquid nitrogen, before storage at -80°C. Lysates were sent to the Genome Research Informatics and Data Science platform (Agency for Science, Technology and Research, Singapore). RNA extraction was done using TRIzol and analyzed on a Tapestation 4200 to determine RNA Integrity Number (RIN). All sequenced samples included for further analysis had RIN > 8. Illumina Stranded mRNA multiplexing was done with unique 96 dual indices, and all samples sequenced on the same lane of NovaSeq 6000 S4 flowcell. Sequenced reads were trimmed for adaptor sequence using Trim Galore v0.6.4, then aligned to human genome build GRCh38 using STAR_2.6.1d. Aligned reads are summarized into count matrices using featureCounts v1.6.4 with the gene annotation file from GENCODE v37.
# Data normalization was performed using DESeq2 v1.32.0 (Love et al. 2014) on the R programming language v4.1.0 (Core Team 2021; Team 2021). Gene enrichment analysis was done with fgsea v1.18 (Korotkevich et al. 2021) with gene sets downloaded from MSigDB and KEGG pathway visualization done via pathview v1.32 (Kanehisa et al. 2021; Luo and Brouwer 2013). Other plots were produced using ggplot2 v3.3.5 and scatterplot3d v0.3-41 (Ligges and Maechler 2003). The RNA-Seq dataset has been deposited in NCBI under accession number GSE189320.
# iPSC(F4)-derived HIVIL = test: Cell viability in iPSC(F4)-derived HIVIL; assay type: cell-based, human; settings: result in words
# Experimental: as §5
# NF-κB = system: NF-κB; set-up: method as in Wahl et al. 1998; settings: ref Wahl et al. 1998; cited from earlier work
# IL-6 [10] = system: IL-6; set-up: method as in ref Hassan et al. 2016; Giustarini et al. 2019; Higuchi et al. 2012; Dik et al. 2018; settings: ref Hassan et al. 2016; Giustarini et al. 2019; Higuchi et al. 2012; Dik et al. 2018; cited from earlier work
# [11] = ref in each cell: Ademisoye et al. 2018, Xu et al. 2008, Agabeyoglu and Incecayir 2009, Rojanasthien et al. 2007, Reunanen et al. 1992, Li et al. 2002, Hong-mei et al. 2013, Bareggi et al. 1987, Jiang et al. 2008
"IC50 (IL-6 [3]; Homo sapiens, LPS, 48 hr) [µM]",Structure (SMILES),DILIst [1],"IC50 ([2]; Homo sapiens, 48 h, read-out: IC50: viability) [µM]",group by drug-dependent IL-6 production (IL-6 [3]),IL-6 / cytokine production in iKC mono-culture (IL-6 [4]),decrease in viability in iKCs (iKCs mono-culture) [%],DILIrank [5],dose at which TNFα induction was observed (TNFα [6]) [µM],Reported in-vivo (murine) responses: TNFα (TNFα [7]),"Cmax [8, 11] [nM]",Cmax ([8]; ref in each cell: Xu et al. 2008) [nM],"change in cell viability ([2]; HIVIL, result in words)","viability profiles among iHeps, iKCs and HIVIL ([2]; comparison of mono-cultures and co-culture)",IL-6 response (IL-6 [3]),IL-6 production (IL-6 [9]),IL-6 transcription in iHeps (iHeps),cell viability (iPSC(F4)-derived HIVIL),Reported human responses: NF-κB (NF-κB),Reported in-vivo (murine) responses: IL-6 (IL-6 [10])
12.9,"CN(C)CCCN1c2ccccc2Sc2ccc(Cl)cc21 [CPZ, Chlorpromazine]",1,34.4,dose-dependent inhibition,higher than that in the HIVIL model,50,less,25,TNFα↑ (Gandhi et al. 2013),800,800,,,,,,,,
,"C[C@H]1COc2c(N3CCN(C)CC3)c(F)cc3c(=O)c(C(=O)O)cn1c23 [LVX, levofloxacin]",1,,no dose-dependent changes,,,most,,,,,did not cause any change,similar,did not cause any change,did not influence,remained unchanged,did not influence,,
,"O=C(O)c1cc(/N=N/c2ccc(S(=O)(=O)Nc3ccccn3)cc2)ccc1O [SSZ, sulfasalazine]",,,no dose-dependent changes,,,,,,17600,,,,no change,,,,NF-κB inhibitor (Wahl et al. 1998),IL-6↓ (Dik et al. 2018)
